Test [1] relates to Phosphorylation of ERK1/2 in AsPC-1 cells. In words: Phospho-ERK1/2 MSD Assay. The class given is cell-based. To be noted: Homo sapiens, ASPC1, 2 h, read-out: 2 h p-ERK (AsPC-1 cells), IC50, AsPC-1 cells, 2 h compound treatment. On the procedure:
Sixteen hours prior to compound treatment, AsPC-1 cells were seeded in 96-well cell culture plates at a density of 25,000 cells/well and incubated at 37° C., 5% CO2. A compound dose-response titration was diluted in growth media, added to appropriate wells of a cell culture plate, and then incubated at 37° C., 5% CO2 for 2 hours.

In test [2] the target is His-tagged KRAS G12D protein (Homo sapiens, UniProt P01116, G12D). In words: biochemical.
Protocol: The plate was incubated for 30 minutes at room temperature. Biotinylated KRPep-2d substrate (Amgen) was diluted to nM in Assay Buffer and 2 μL was added to all wells and incubated for 1 hour at room temperature. Detection Reagent (0.4 nM LANCE Eu-W1024 Anti-6×His (Perkin Elmer AD0401), 5 nM streptavidin-d2 (Cisbio 610SADLA)) was prepared in Assay Buffer, then 4 µL was added to the plate and incubated for 1 hour at room temperature.

These results are taken from US20250034167A1, “HETEROCYCLIC COMPOUNDS AND METHODS OF USE” (AMGEN INC., priority 2021, published 2025).

SMILES strings stand for the structures. pIC50: −log10 of the molar value.

Sequence of His-tagged KRAS G12D protein (P01116 1-188 isoform P01116-2 G12D): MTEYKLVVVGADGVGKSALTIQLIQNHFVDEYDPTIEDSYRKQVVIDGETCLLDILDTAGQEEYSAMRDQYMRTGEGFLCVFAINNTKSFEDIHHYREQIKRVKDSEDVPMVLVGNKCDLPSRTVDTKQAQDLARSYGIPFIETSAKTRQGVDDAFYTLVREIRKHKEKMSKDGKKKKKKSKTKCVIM

As a reminder, the pIC50 is the negative decadic logarithm of the IC50, by convention in mol/L. Regarding `CCc1c(F)ccc2cc(O)cc(-c3ncc4c(N5CC6CC(=O)C5C6)nc(OC[C@@]56CCCN5C[C@H](F)C6)nc4c3F)c12` (stereo partly drawn) [Example 72, 2-(7-(8-Ethyl-7-fluoro-3-hydroxynaphthalen-1-yl)-8-fluoro-2-(((2R,7aS)-2-fluorotetrahydro-1H-pyrrolizin-7a(5H)-yl)methoxy)pyrido[4,3-d]pyrimidin-4-yl)-2-azabicyclo[2.2.1]heptan-6-one], the pIC50 in test [1] was 5.49; in test [2], 7.47.

For `CCc1c(F)ccc2cc(O)cc(-c3ncc4c(N5CCCC(S(=O)(=O)NC)C5)nc(OC[C@@]56CCCN5C[C@H](F)C6)nc4c3F)c12` (stereo partly drawn) [Example 79, 1-(7-(8-Ethyl-7-fluoro-3-hydroxynaphthalen-1-yl)-8-fluoro-2-(((2R,7aS)-2-fluorotetrahydro-1H-pyrrolizin-7a(5H)-yl)methoxy)pyrido[4,3-d]pyrimidin-4-yl)-N-methylpiperidine-3-sulfonamide], the results for the pIC50 in test [1] and in test [2] were 5.66 and 8.30, respectively.

Turning to `CCc1c(F)ccc2cc(O)cc(-c3ncc4c(N5CCCCC[C@H]5C)nc(OC[C@@]56CCCN5C[C@H](F)C6)nc4c3F)c12` [Example 80, 5-Ethyl-6-fluoro-4-(8-fluoro-2-(((2R,7aS)-2-fluorotetrahydro-1H-pyrrolizin-7a(5H)-yl)methoxy)-4-((R)-2-methylazepan-1-yl)pyrido[4,3-d]pyrimidin-7-yl)naphthalen-2-ol], the figures for the pIC50 in test [1] and in test [2] were 6.60 and 8.70, respectively.

Regarding `CCc1c(F)ccc2cc(O)cc(-c3ncc4c(N5CCCCC[C@@H]5C)nc(OC[C@@]56CCCN5C[C@H](F)C6)nc4c3F)c12` [Example 81, 5-Ethyl-6-fluoro-4-(8-fluoro-2-(((2R,7aS)-2-fluorotetrahydro-1H-pyrrolizin-7a(5H)-yl)methoxy)-4-((S)-2-methylazepan-1-yl)pyrido[4,3-d]pyrimidin-7-yl)naphthalen-2-ol], the pIC50 in test [1] was 5.94; in test [2] it was 7.72.

In the case of `CCc1c(F)ccc2cc(O)cc(-c3ncc4c(N5CC(CS(N)(=O)=O)C5)nc(OC[C@@]56CCCN5C[C@H](F)C6)nc4c3F)c12` [Example 82, (1-(7-(8-Ethyl-7-fluoro-3-hydroxynaphthalen-1-yl)-8-fluoro-2-(((2R,7aS)-2-fluorotetrahydro-1H-pyrrolizin-7a(5H)-yl)methoxy)pyrido[4,3-d]pyrimidin-4-yl)azetidin-3-yl)methanesulfonamide], the pIC50 was under 5.00 in test [1] and 7.48 in test [2].

Take `CCc1c(F)ccc2cc(O)cc(-c3ncc4c(N5CC(O)(C(N)=O)C5)nc(OC[C@@]56CCCN5C[C@H](F)C6)nc4c3F)c12` [Example 83, 1-(7-(8-Ethyl-7-fluoro-3-hydroxynaphthalen-1-yl)-8-fluoro-2-(((2R,7aS)-2-fluorotetrahydro-1H-pyrrolizin-7a(5H)-yl)methoxy)pyrido[4,3-d]pyrimidin-4-yl)-3-hydroxyazetidine-3-carboxamide]: the pIC50 was under 5.00 in test [1] and 8.70 in test [2].

Regarding `CCc1c(F)ccc2cc(O)cc(-c3ncc4c(N5CCCC(S(C)(=O)=O)C5)nc(OC[C@@]56CCCN5C[C@H](F)C6)nc4c3F)c12` (stereo partly drawn) [Example 84, 5-Ethyl-6-fluoro-4-(8-fluoro-2-(((2R,7aS)-2-fluorotetrahydro-1H-pyrrolizin-7a(5H)-yl)methoxy)-4-(3-(methylsulfonyl)piperidin-1-yl)pyrido[4,3-d]pyrimidin-7-yl)naphthalen-2-ol], the figures for the pIC50 in test [1] and in test [2] were 5.89 and 8.30, respectively.

In the case of `CCc1c(F)ccc2cc(O)cc(-c3ncc4c(N5CCC(S(N)(=O)=O)CC5)nc(OC[C@@]56CCCN5C[C@H](F)C6)nc4c3F)c12` [Example 85, 1-(7-(8-Ethyl-7-fluoro-3-hydroxynaphthalen-1-yl)-8-fluoro-2-(((2R,7aS)-2-fluorotetrahydro-1H-pyrrolizin-7a(5H)-yl)methoxy)pyrido[4,3-d]pyrimidin-4-yl)piperidine-4-sulfonamide], the pIC50 in test [1] is under 5.00; in test [2] it was 7.43.

Turning to `CCc1c(F)ccc2cc(O)cc(-c3ncc4c(N5CCC(S(N)(=O)=O)C5)nc(OC[C@@]56CCCN5C[C@H](F)C6)nc4c3F)c12` (stereo partly drawn) [Example 86, 1-(7-(8-Ethyl-7-fluoro-3-hydroxynaphthalen-1-yl)-8-fluoro-2-(((2R,7aS)-2-fluorotetrahydro-1H-pyrrolizin-7a(5H)-yl)methoxy)pyrido[4,3-d]pyrimidin-4-yl)pyrrolidine-3-sulfonamide], the negative-log IC50 (pIC50) in test [1] is under 5.00; in test [2], 7.19.

Take `CCc1c(F)ccc2cc(O)cc(-c3ncc4c(N5CC(S(N)(=O)=O)C5)nc(OC[C@@]56CCCN5C[C@H](F)C6)nc4c3F)c12` [Example 87, 1-(7-(8-Ethyl-7-fluoro-3-hydroxynaphthalen-1-yl)-8-fluoro-2-(((2R,7aS)-2-fluorotetrahydro-1H-pyrrolizin-7a(5H)-yl)methoxy)pyrido[4,3-d]pyrimidin-4-yl)azetidine-3-sulfonamide]: the figures for the pIC50 in test [1] and in test [2] were under 5.00 and 7.20, respectively.

As to `CCc1c(F)ccc2cc(O)cc(-c3ncc4c(N5CC(C(N)=O)C5)nc(OC[C@@]56CCCN5C[C@H](F)C6)nc4c3F)c12` [Example 88, 1-(7-(8-Ethyl-7-fluoro-3-hydroxynaphthalen-1-yl)-8-fluoro-2-(((2R,7aS)-2-fluorotetrahydro-1H-pyrrolizin-7a(5H)-yl)methoxy)pyrido[4,3-d]pyrimidin-4-yl)azetidine-3-carboxamide], the pIC50 was under 5.00 in test [1] and 8.22 in test [2].

For `CCc1c(F)ccc2cc(O)cc(-c3ncc4c(N5CCCC(C(=O)NC)C5)nc(OC[C@@]56CCCN5C[C@H](F)C6)nc4c3F)c12` (stereo partly drawn) [Example 89, 1-(7-(8-Ethyl-7-fluoro-3-hydroxynaphthalen-1-yl)-8-fluoro-2-(((2R,7aS)-2-fluorotetrahydro-1H-pyrrolizin-7a(5H)-yl)methoxy)pyrido[4,3-d]pyrimidin-4-yl)-N-methylpiperidine-3-carboxamide], the pIC50 was under 5.52 in test [1] and 8.05 in test [2].

For `CCc1c(F)ccc2cc(O)cc(-c3ncc4c(N5CC(C)(O)C5)nc(OC[C@@]56CCCN5C[C@H](F)C6)nc4c3F)c12` [Example 92, 1-(7-(8-Ethyl-7-fluoro-3-hydroxynaphthalen-1-yl)-8-fluoro-2-(((2R,7aS)-2-fluorotetrahydro-1H-pyrrolizin-7a(5H)-yl)methoxy)pyrido[4,3-d]pyrimidin-4-yl)-3-methylazetidin-3-ol], the pIC50 is 5.18 in test [1] and 7.08 in test [2].

With `CCc1c(F)ccc2cc(O)cc(-c3ncc4c(N5CCCCCCC5)nc(OC[C@@]56CCCN5C[C@H](F)C6)nc4c3F)c12` [Example 93, 4-(4-(Azocan-1-yl)-8-fluoro-2-(((2R,7aS)-2-fluorotetrahydro-1H-pyrrolizin-7a(5H)-yl)methoxy)pyrido[4,3-d]pyrimidin-7-yl)-5-ethyl-6-fluoronaphthalen-2-ol], the pIC50 was 7.00 in test [1] and 8.70 in test [2].

Take `CCc1c(F)ccc2cc(O)cc(-c3ncc4c(N5CC6CCC(C5)C6O)nc(OC[C@@]56CCCN5C[C@H](F)C6)nc4c3F)c12` (stereo partly drawn) [Example 97, 3-(7-(8-Ethyl-7-fluoro-3-hydroxynaphthalen-1-yl)-8-fluoro-2-(((2R,7aS)-2-fluorotetrahydro-1H-pyrrolizin-7a(5H)-yl)methoxy)pyrido[4,3-d]pyrimidin-4-yl)-3-azabicyclo[3.2.1]octan-8-ol]: the pIC50 in test [1] was 5.81; in test [2], 7.48.
